# Experimental data reported in US20020137929A1, “1 - (3-heterocyclylphenyl) isothiourea, -isourea, -guanidine and -amidine herbicidal agents” (Intellectual Property Department, BASF Aktiengesellschaft, priority 1998, published 2002).
# Assays:
# [1] = test system: ECHORC (Watergrass (Calif.)); test: Postemergence weed control under flooded paddy conditions; format: in vivo, Echinochloa oryzoides; conditions: postemergence weeds, 3-4 weeks after treatment
# Method in brief: (§1)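 With weeds 3 to 5 cm tall and rice at the 1.5 to 2.5 leaf stage, containers were flooded and water held 1.5 to 3 cm above soil. Compounds in 50/50 v/v aqueous/acetone went into the flood water at about 0.0313 to 0.500 kg/ha a.i. Effects were visually rated 0–9 against controls after three to four weeks in the greenhouse.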
# SETVI (Foxtail, Green) = test: Postemergence herbicidal evaluation; format: in vivo, Setaria viridis
# Method in brief: (§2)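 Herbicidal effect was judged by eye on a 0–9 scale covering stand, vigor, deformity, size and chlorosis, compared with controls, four to five weeks after seedlings about two weeks old were sprayed (40 psi, ~0.0156–0.500 kg/ha).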
# ZEAMX (Corn, Field) = test: Postemergence herbicidal evaluation; format: in vivo, Zea mays
# Method in brief: as §2
# [2] = test system: GLXMAW (Soybean, Williams); test: Postemergence herbicidal evaluation; format: in vivo, Glycine max, (L.) Merr. cv Williams
# Method in brief: as §2
# ABUTH (Velvetleaf) [3] = test: Postemergence herbicidal evaluation; format: in vivo, Abutilon theophrasti
# Method in brief: as §2
# [4] = test system: IPOHE (Morningglory, Ivyleaf); test: Postemergence herbicidal evaluation; format: in vivo, Ipomoea hederacea
# Method in brief: as §2
# ECHCG (Barnyardgrass) = test: Preemergence herbicidal evaluation; format: in vivo, Echinochloa crus-galli; conditions: rated 4-5 weeks after treatment
# Method in brief: (§3)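 Rating at 4–5 wk post-spray on a 0–9 visual scale vs control. Application: aqueous acetone, ~0.0156–0.500 kg/ha, to soil surface after seeding, preemergence.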
# [5] = test system: IPOHE (Morningglory, Ivyleaf); test: Preemergence herbicidal evaluation; format: in vivo, Ipomoea hederacea; conditions: rated 4-5 weeks after treatment
# Method in brief: as §3
# CASOB (Sicklepod) = test: Preemergence herbicidal evaluation; format: in vivo, Cassia obtusifolia; conditions: rated 4-5 weeks after treatment
# Method in brief: as §3
# CYPSE (Flatsedge) = test: Preemergence weed control under flooded paddy conditions; format: in vivo, Cyperus serotinus; conditions: rated 3-4 weeks after treatment
# Method in brief: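 Seeds or propagules sown in silt loam kept flooded 1.5-3 cm; compounds in 50/50 acetone/water pipetted into flood water at about 0.0313 to 0.500 kg/ha. Greenhouse; visual 0-9 rating versus untreated control 3-4 weeks after treatment.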
# CYPIR (Rice Flatsedge) = test: Postemergence weed control under flooded paddy conditions; format: in vivo, Cyperus iria; conditions: postemergence weeds, 3-4 weeks after treatment
# Method in brief: as §1
# ABUTH (Velvetleaf) [6] = test: Preemergence herbicidal evaluation; format: in vivo, Abutilon theophrasti; conditions: rated 4-5 weeks after treatment
# Method in brief: as §3
# AMBEL (Ragweed, Common) = test: Preemergence herbicidal evaluation; format: in vivo, Ambrosia artemisifolia; conditions: rated 4-5 weeks after treatment
# Method in brief: as §3
# [7] = test system: ECHORC (Watergrass (Calif.)); test: Preemergence weed control under flooded paddy conditions; format: in vivo, Echinochloa oryzoides; conditions: rated 3-4 weeks after treatment
# Method in brief: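 Flooded-pot preemergence screen with silt loam and seeds in the upper 0.5 cm. Dose about 0.0313 to 0.500 kg/ha, delivered into flood water; visual 0-9 score after 3 to 4 weeks.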
compound,measurement,setting,value
"COC(=O)CCCN1C(=O)CSC1=Nc1cc(-n2c(=O)cc(C(F)(F)F)n(C)c2=O)c(F)cc1Cl [Compound 29, Methyl 2-{{2-chloro-5-[3,6-dihydro-3-methyl-2,6-dioxo-4-(trifluoromethyl)-1(2H)-pyrimidinyl]-4-fluorophenyl}imino}-4-oxo-3-thiazolidinebutyrate]",Herbicidal rating ECHORC,[1]; rate 0.0313 kg/ha,4.0
same,Herbicidal rating ECHORC,[1]; rate 0.0625 kg/ha,7.0
same,Herbicidal rating ECHORC,[1]; rate 0.1250 kg/ha,7.0
same,Herbicidal rating ECHORC,[1]; rate 0.2500 kg/ha,7.0
same,Postemergence herbicidal rating SETVI,"SETVI (Foxtail, Green); Rate 0.0158 kg/ha",0.0
same,Postemergence herbicidal rating SETVI,"SETVI (Foxtail, Green); Rate 0.0315 kg/ha",1.0
same,Postemergence herbicidal rating SETVI,"SETVI (Foxtail, Green); Rate 0.0630 kg/ha",4.0
same,Postemergence herbicidal rating ZEAMX,"ZEAMX (Corn, Field); Rate 0.0158 kg/ha",5.5
same,Postemergence herbicidal rating ZEAMX,"ZEAMX (Corn, Field); Rate 0.0315 kg/ha",5.5
same,Postemergence herbicidal rating ZEAMX,"ZEAMX (Corn, Field); Rate 0.0630 kg/ha",7.5
same,Postemergence herbicidal rating GLXMAW,[2]; Rate 0.0158 kg/ha,6.5
same,Postemergence herbicidal rating GLXMAW,[2]; Rate 0.0315 kg/ha,7.5
same,Postemergence herbicidal rating GLXMAW,[2]; Rate 0.0630 kg/ha,8.0
same,Postemergence herbicidal rating ABUTH,ABUTH (Velvetleaf) [3]; Rate 0.0158 kg/ha,9.0
same,Postemergence herbicidal rating ABUTH,ABUTH (Velvetleaf) [3]; Rate 0.0315 kg/ha,7.0
same,Postemergence herbicidal rating ABUTH,ABUTH (Velvetleaf) [3]; Rate 0.0630 kg/ha,9.0
same,Postemergence herbicidal rating IPOHE,[4]; Rate 0.0158 kg/ha,3.0
same,Postemergence herbicidal rating IPOHE,[4]; Rate 0.0315 kg/ha,9.0
same,Postemergence herbicidal rating IPOHE,[4]; Rate 0.0630 kg/ha,9.0
same,Preemergence herbicidal rating ECHCG,ECHCG (Barnyardgrass); rate 0.0625 kg/ha,0.0
same,Preemergence herbicidal rating ECHCG,ECHCG (Barnyardgrass); rate 0.1250 kg/ha,0.0
same,Preemergence herbicidal rating ECHCG,ECHCG (Barnyardgrass); rate 0.2500 kg/ha,0.0
same,Preemergence herbicidal rating IPOHE,[5]; rate 0.0625 kg/ha,0.0
same,Preemergence herbicidal rating IPOHE,[5]; rate 0.1250 kg/ha,0.0
same,Preemergence herbicidal rating IPOHE,[5]; rate 0.2500 kg/ha,4.0
same,Preemergence herbicidal rating CASOB,CASOB (Sicklepod); rate 0.0625 kg/ha,0.0
same,Preemergence herbicidal rating CASOB,CASOB (Sicklepod); rate 0.1250 kg/ha,0.0
same,Preemergence herbicidal rating CASOB,CASOB (Sicklepod); rate 0.2500 kg/ha,0.0
same,Herbicidal rating CYPSE,CYPSE (Flatsedge); 0.0313 kg/ha,0.0
same,Herbicidal rating CYPSE,CYPSE (Flatsedge); 0.0625 kg/ha,0.0
same,Herbicidal rating CYPSE,CYPSE (Flatsedge); 0.1250 kg/ha,0.0
same,Herbicidal rating CYPSE,CYPSE (Flatsedge); 0.2500 kg/ha,0.0
same,Herbicidal rating CYPIR,CYPIR (Rice Flatsedge); rate 0.0313 kg/ha,0.0
same,Herbicidal rating CYPIR,CYPIR (Rice Flatsedge); rate 0.0625 kg/ha,0.0
same,Herbicidal rating CYPIR,CYPIR (Rice Flatsedge); rate 0.1250 kg/ha,0.0
same,Herbicidal rating CYPIR,CYPIR (Rice Flatsedge); rate 0.2500 kg/ha,0.0
same,Preemergence herbicidal rating ABUTH,ABUTH (Velvetleaf) [6]; rate 0.0625 kg/ha,9.0
same,Preemergence herbicidal rating ABUTH,ABUTH (Velvetleaf) [6]; rate 0.1250 kg/ha,9.0
same,Preemergence herbicidal rating ABUTH,ABUTH (Velvetleaf) [6]; rate 0.2500 kg/ha,9.0
same,Preemergence herbicidal rating AMBEL,"AMBEL (Ragweed, Common); rate 0.0625 kg/ha",0.0
same,Preemergence herbicidal rating AMBEL,"AMBEL (Ragweed, Common); rate 0.1250 kg/ha",0.0
same,Preemergence herbicidal rating AMBEL,"AMBEL (Ragweed, Common); rate 0.2500 kg/ha",0.0
same,Herbicidal rating ECHORC,[7]; 0.0313 kg/ha,4.0
same,Herbicidal rating ECHORC,[7]; 0.0625 kg/ha,7.0
same,Herbicidal rating ECHORC,[7]; 0.1250 kg/ha,7.0
same,Herbicidal rating ECHORC,[7]; 0.2500 kg/ha,7.0
"CCOC(=O)CN1C(=O)C(CC(=O)O)SC1=Nc1cc(-n2c(=O)cc(C(F)(F)F)n(C)c2=O)c(Cl)cc1Cl (stereo not drawn) [Compound 33, 2-{{2,4-Dichloro-5-[3,6-dihydro-3-methyl-2,6-dioxo-4-(trifluoromethyl)-1(2H)-pyrimidinyl]phenyl}-imino}-4-oxo-3,5-thiazolidinediacetic acid, 3-ethyl ester]",Herbicidal rating ECHORC,[1]; rate 0.2500 kg/ha,0.0
same,Postemergence herbicidal rating SETVI,"SETVI (Foxtail, Green); Rate 0.0158 kg/ha",4.0
same,Postemergence herbicidal rating SETVI,"SETVI (Foxtail, Green); Rate 0.0315 kg/ha",7.0
same,Postemergence herbicidal rating SETVI,"SETVI (Foxtail, Green); Rate 0.0630 kg/ha",8.0
same,Postemergence herbicidal rating ZEAMX,"ZEAMX (Corn, Field); Rate 0.0158 kg/ha",7.5
same,Postemergence herbicidal rating ZEAMX,"ZEAMX (Corn, Field); Rate 0.0315 kg/ha",8.0
same,Postemergence herbicidal rating ZEAMX,"ZEAMX (Corn, Field); Rate 0.0630 kg/ha",8.5
same,Postemergence herbicidal rating GLXMAW,[2]; Rate 0.0158 kg/ha,7.0
same,Postemergence herbicidal rating GLXMAW,[2]; Rate 0.0315 kg/ha,8.5
same,Postemergence herbicidal rating GLXMAW,[2]; Rate 0.0630 kg/ha,8.5
same,Postemergence herbicidal rating ABUTH,ABUTH (Velvetleaf) [3]; Rate 0.0158 kg/ha,9.0
same,Postemergence herbicidal rating ABUTH,ABUTH (Velvetleaf) [3]; Rate 0.0315 kg/ha,9.0
same,Postemergence herbicidal rating ABUTH,ABUTH (Velvetleaf) [3]; Rate 0.0630 kg/ha,9.0
same,Postemergence herbicidal rating IPOHE,[4]; Rate 0.0158 kg/ha,9.0
same,Postemergence herbicidal rating IPOHE,[4]; Rate 0.0315 kg/ha,9.0
same,Postemergence herbicidal rating IPOHE,[4]; Rate 0.0630 kg/ha,9.0
same,Preemergence herbicidal rating ECHCG,ECHCG (Barnyardgrass); rate 0.0156 kg/ha,0.0
same,Preemergence herbicidal rating ECHCG,ECHCG (Barnyardgrass); rate 0.0313 kg/ha,0.0
same,Preemergence herbicidal rating ECHCG,ECHCG (Barnyardgrass); rate 0.0625 kg/ha,0.0
same,Preemergence herbicidal rating ECHCG,ECHCG (Barnyardgrass); rate 0.1250 kg/ha,0.0
same,Preemergence herbicidal rating ECHCG,ECHCG (Barnyardgrass); rate 0.2500 kg/ha,0.0
same,Preemergence herbicidal rating IPOHE,[5]; rate 0.0156 kg/ha,0.0
same,Preemergence herbicidal rating IPOHE,[5]; rate 0.0313 kg/ha,0.0
same,Preemergence herbicidal rating IPOHE,[5]; rate 0.0625 kg/ha,0.0
same,Preemergence herbicidal rating IPOHE,[5]; rate 0.1250 kg/ha,0.0
same,Preemergence herbicidal rating IPOHE,[5]; rate 0.2500 kg/ha,9.0
same,Preemergence herbicidal rating CASOB,CASOB (Sicklepod); rate 0.0156 kg/ha,0.0
same,Preemergence herbicidal rating CASOB,CASOB (Sicklepod); rate 0.0313 kg/ha,0.0
same,Preemergence herbicidal rating CASOB,CASOB (Sicklepod); rate 0.0625 kg/ha,0.0
same,Preemergence herbicidal rating CASOB,CASOB (Sicklepod); rate 0.1250 kg/ha,4.0
same,Preemergence herbicidal rating CASOB,CASOB (Sicklepod); rate 0.2500 kg/ha,9.0
same,Herbicidal rating CYPSE,CYPSE (Flatsedge); 0.2500 kg/ha,0.0
same,Herbicidal rating CYPIR,CYPIR (Rice Flatsedge); rate 0.2500 kg/ha,0.0
same,Preemergence herbicidal rating ABUTH,ABUTH (Velvetleaf) [6]; rate 0.0156 kg/ha,0.0
same,Preemergence herbicidal rating ABUTH,ABUTH (Velvetleaf) [6]; rate 0.0313 kg/ha,0.0
same,Preemergence herbicidal rating ABUTH,ABUTH (Velvetleaf) [6]; rate 0.0625 kg/ha,9.0
same,Preemergence herbicidal rating ABUTH,ABUTH (Velvetleaf) [6]; rate 0.1250 kg/ha,9.0
same,Preemergence herbicidal rating ABUTH,ABUTH (Velvetleaf) [6]; rate 0.2500 kg/ha,9.0
same,Preemergence herbicidal rating AMBEL,"AMBEL (Ragweed, Common); rate 0.0156 kg/ha",0.0
same,Preemergence herbicidal rating AMBEL,"AMBEL (Ragweed, Common); rate 0.0313 kg/ha",0.0
same,Preemergence herbicidal rating AMBEL,"AMBEL (Ragweed, Common); rate 0.0625 kg/ha",9.0
same,Preemergence herbicidal rating AMBEL,"AMBEL (Ragweed, Common); rate 0.1250 kg/ha",9.0
same,Preemergence herbicidal rating AMBEL,"AMBEL (Ragweed, Common); rate 0.2500 kg/ha",9.0
same,Herbicidal rating ECHORC,[7]; 0.2500 kg/ha,0.0
